Assay results as given in the OligoGym collection.
“And” between values parts separate entries of the source, which are not always exact repeats. Identical values can stand only once. After the bases stand the sugars from the 5' end (letter, count) and the backbone: PS all phosphorothioate, else s phosphorothioate and o phosphodiester by linkage. Methylation of C is not given here. e = 2'-O-(2-methoxyethyl) (MOE); d = 2'-deoxy (DNA)

Biological target: DGAT2
Settings: ASO

Sequence	target mRNA inhibition (HepG2, 2.5 µM)	target mRNA inhibition (HepG2, 10 µM)	target mRNA inhibition (HepG2, 0.12 µM) [%]	target mRNA inhibition (HepG2, 20 µM) [%]
AACAGGGTACAACTCTCTTG (sugars e5 d10 e5, PS)	61%	92%		
GCCCAATATCTGATATCAAA (sugars e5 d10 e5, PS)	80% and 69%	89% and 84%		
GCAATGTTGCCATCATACTA (sugars e5 d10 e5, PS)	63%	88%		
TGACCTGTAGCTGCTTTTCC (sugars e5 d10 e5, PS)			35	
GAGGCTCAGGCCTTGACAAC (sugars e5 d10 e5, PS)			12	
CCCAGGAGCCCTCCTCGAAG (sugars e5 d10 e5, PS)			54	
CTGACATGGTAAGTCCTGAT (sugars e5 d10 e5, PS)	76% and 52%	93% and 89%		
TCCAAAGATATAGTTCCTGG (sugars e5 d10 e5, PS)			63	
CCCAACCTTTAAGGCCTATC (sugars e5 d10 e5, PS)	46%	85%		
AGGCCCCTTCTGAAGAGGGA (sugars e5 d10 e5, PS)			43	
TTTGCTCAGTTCTTCCAACC (sugars e5 d10 e5, PS)	72% and 70%	93% and 92%		
TCCCAGACCCCTCGCGCGAC (sugars e5 d10 e5, PS)			36	
GTGGCTCTCTAGATAGGGTG (sugars e5 d10 e5, PS)	68%	84%		
ACCCCCTCAGGAAGGCACAG (sugars e5 d10 e5, PS)			25	
AGGATGAACTAAATCCACCA (sugars e5 d10 e5, PS)	62%	90%		
ACCTCGATGTTACATTAAGG (sugars e5 d10 e5, PS)	68%	90%		
GACCCACTGGAGCACTGAGA (sugars e2 d13 e5, PS)			70	
AGCTGGATGGGAAAGTAGTC (sugars e5 d10 e5, PS)			31	
GCATTGCCACTCCCATTCTT (sugars e3 d14 e3, PS)			85	
AGCACTGAGATGACCTGTAG (sugars e5 d10 e5, PS)			36	
TGAGTAAGGGTATTCTGCTC (sugars e5 d10 e5, PS)	80% and 72%	93% and 91%		
GATATAGTTCCTGGTGGTCA (sugars e5 d10 e5, PS)			57	

Sequence	target mRNA inhibition (HepG2, 2.5 µM)	target mRNA inhibition (HepG2, 10 µM)	target mRNA inhibition (HepG2, 0.12 µM) [%]	target mRNA inhibition (HepG2, 20 µM) [%]
CCGCGCAGGACCCCGGAGTA (sugars e5 d10 e5, PS)			75	
ACTGAGATCTCCAGCAGCAA (sugars e5 d10 e5, PS)	50% and 61% and 56%	90% and 93% and 92%		
GCATTGCCACTCCCATTCTT (sugars e2 d13 e5, PS)			61	
AATTTCCTTACAGGGTATTG (sugars e5 d10 e5, PS)			46	
AGTCTAGTTGGAAAAGTAGA (sugars e5 d10 e5, PS)			16	
GCCTGGACAAGTCCTGC (sugars e3 d10 e4, PS)	68% and 75%	89% and 97%		
TCGGAGGAGAAGAGGCCTCG (sugars e5 d10 e5, PS)			60	
GAGCAGGTTCATCTGCCTTG (sugars e5 d10 e5, PS)	81% and 61%	92% and 83%		
GCCACCCCCATCCTCATCCT (sugars e5 d10 e5, PS)			0	
AGCTGCAAGGATGACCTTGG (sugars e5 d10 e5, PS)	52%	34%		
CACTTCTGTGGCCTCTGTGC (sugars e5 d10 e5, PS)			38	
CCCCTCGCGCGACAGCGCAG (sugars e5 d10 e5, PS)			25	
AGTAAGGGTATTCTGCTCAT (sugars e5 d10 e5, PS)	87%	77%		
GCATGGAGCTCAGAGACTCA (sugars e2 d13 e5, PS)			77	
GTACTCCCTCAACACAGGCA (sugars e5 d10 e5, PS)			72	
CCTGCAGAAAAAGCAACCAA (sugars e5 d10 e5, PS)	30%	75%		
CATGTCATCAGCCACCCAAG (sugars e5 d10 e5, PS)			16	
CAAATCTGTGTGACCTTGGG (sugars e5 d10 e5, PS)	65%	93%		
TGAGTAGTCAAAGGTGGCTT (sugars e5 d10 e5, PS)			30	
ACAAAAGTCTGACATGGTGC (sugars e5 d10 e5, PS)	77%	78%		
AGCCAGGTAAGGCCGTATGC (sugars e3 d14 e3, PS)			51	
GGTAAGTCCTGATGATCCCC (sugars e5 d10 e5, PS)	86% and 74%	94% and 95%		

Sequence	target mRNA inhibition (HepG2, 2.5 µM)	target mRNA inhibition (HepG2, 10 µM)	target mRNA inhibition (HepG2, 0.12 µM) [%]	target mRNA inhibition (HepG2, 20 µM) [%]
TGCTTATCCTTGAGGGTCTC (sugars e5 d10 e5, PS)	64%	84%		
GGTTGTGTGTCTTCACCAGC (sugars e2 d13 e5, PS)			68	
TGGTTGCAATGTTGCCATCA (sugars e5 d10 e5, PS)	94% and 78%	94% and 93%		
GCTAAGGAAAACTTAGGCAT (sugars e5 d10 e5, PS)	56%	89% and 85%		
GCACTCTGTGATGCTCTGGA (sugars e5 d10 e5, PS)		90% and 84%		
TAGTTCCTGGTGGTCAGCAG (sugars e5 d10 e5, PS)			48	
AAGAGCTTCACCAGGGCCTC (sugars e5 d10 e5, PS)	10% and 22%	83%	44	92
GGCCAAGGCTGAGTCTGTGC (sugars e5 d10 e5, PS)			17	
AGCACAGCGATGAGCCAGCA (sugars e5 d10 e5, PS)			35	
GCTTCAATAAATACCTTATC (sugars e5 d10 e5, PS)	84% and 74%	92% and 97%		
ATGGGAATGGTATCGCACTC (sugars e5 d10 e5, PS)	57% and 72%	80% and 96%		
TGCTCAGTTCTTCCAACCAG (sugars e5 d10 e5, PS)	86% and 79%	93% and 94%		
GCATGGAGCTCAGAGACTCA (sugars e3 d14 e3, PS)			51	
CCCTTGCGGTTCCGCAGGGT (sugars e5 d10 e5, PS)			36	
AACCACTGTTGCTGAGCTCA (sugars e5 d10 e5, PS)	74% and 72%	88%		
AGTTTCCTTTGAAATCCAAT (sugars e5 d10 e5, PS)	65%	88%		
GGAGTTCTCGAATATCCCTA (sugars e5 d10 e5, PS)	74% and 82% and 85%	90% and 94%		
GCACATCTCTTCCATCTCCA (sugars e5 d10 e5, PS)	74%	92%		
AGCTGCTTTTCCACCTTGGA (sugars e2 d16 e2, PS)			45	
CAGGTTGTGTGTCTTCACCA (sugars e3 d14 e3, PS)			68	
GTTTACTGTGGCACTAAGCT (sugars e5 d10 e5, PS)	57%	84%		
